Laboratory results as given in patent publication US20260297085A1, “1 H-PYRROLO[2,3-B]PYRIDIN-4-YL]-2-OXOPYRROLIDINE-3-CARBONITRILE DERIVATIVES AS TYROSINE KINASE 2 (TYK2) INHIBITORS FOR THE TREATMENT OF INFLAMMATORY DISEASES” (BIOGEN MA INC., priority 2023, published 2026).
Structures can show the parent of a compound that is named as a salt.

Tests used:
[1] = target: T1, human TYK2 kinase domain (JH1) (Homo sapiens, UniProt P29597); experiment: JH1 biochemical assay for TYK2 (ADP-Glo kinase assay, recombinant JH1 catalytic domain, JAK3-974 peptide, 10 μM ATP)
T1 construct: recombinantly generated catalytic kinase (also known as JH1) domain of human JAK1, JAK2, JAK3 and TYK2
T1 sequence (P29597 897-1176 limits assumed): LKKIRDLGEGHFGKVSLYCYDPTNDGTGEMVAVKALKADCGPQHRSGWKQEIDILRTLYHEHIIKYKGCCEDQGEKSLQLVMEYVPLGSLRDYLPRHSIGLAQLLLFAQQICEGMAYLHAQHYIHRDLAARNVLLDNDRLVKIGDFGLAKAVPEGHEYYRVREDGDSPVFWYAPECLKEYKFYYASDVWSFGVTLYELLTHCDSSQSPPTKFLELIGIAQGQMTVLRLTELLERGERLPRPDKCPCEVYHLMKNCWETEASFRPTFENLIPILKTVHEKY
Outline: (§1)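 Enzyme levels: JAK1 4 nM, JAK2 0.2 nM, JAK3 0.3 nM, TYK2 2 nM. Peptide substrate at 50 μM. Reactions ran 100 minutes; ADP formed was converted to luciferase luminescence after ATP depletion. Compounds tested from 10 μM or 1 μM top, 11-point 3-fold dilutions; IC50 from 4-parameter logistic fit of normalized percent activity.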

[2] = target: T2, human JAK1 kinase domain (JH1) (Homo sapiens, UniProt P23458); experiment: JH1 biochemical assay for JAK1 (ADP-Glo kinase assay, recombinant JH1 catalytic domain, JAK3-342 peptide, 35 μM ATP)
T2 construct: recombinantly generated catalytic kinase (also known as JH1) domain of human JAK1, JAK2, JAK3 and TYK2
Outline: as §1

[3] = target: T3, human JAK2 kinase domain (JH1) (Homo sapiens, UniProt O60674); experiment: JH1 biochemical assay for JAK2 (ADP-Glo kinase assay, recombinant JH1 catalytic domain, JAK3-974 peptide, 15 μM ATP)
T3 construct: recombinantly generated catalytic kinase (also known as JH1) domain of human JAK1, JAK2, JAK3 and TYK2
Outline: as §1

[4] = target: T4, human JAK3 kinase domain (JH1) (Homo sapiens, UniProt P52333); experiment: JH1 biochemical assay for JAK3 (ADP-Glo kinase assay, recombinant JH1 catalytic domain, JAK3-974 peptide, 4 μM ATP)
T4 construct: recombinantly generated catalytic kinase (also known as JH1) domain of human JAK1, JAK2, JAK3 and TYK2
Outline: as §1

[5] = target: Tyk2 kinase activity on STAT4 in NK92 cells (Homo sapiens, UniProt P29597); experiment: pSTAT4 cell assay (MSD; NK92 cells, 30 ng/mL IL2 stimulation); assay type: cell-based; conditions: 30 ng/mL IL2, 15 minutes
Outline: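 NK92, serum-starved; cpd 1 hr, 10-pt 4-fold from 10 μM; IL2 30 ng/mL 15 min; lyse; MSD with anti-STAT4 Abs; IC50 by 4-PL fit.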

[6] = target: JAK2 kinase activity on STAT5 in TF1 cells (Homo sapiens, UniProt O60674); experiment: pSTAT5 cell assay (MSD; TF1 cells, 30 ng/mL IL-3 stimulation); assay type: cell-based; conditions: 30 ng/mL IL-3, 15 minutes
Outline: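 Serum-starved TF1 cells with native JAK2/STAT5 were pretreated 1 h with compound (10-point four-fold dilutions from 10 μM), then stimulated 15 min with 30 ng/mL IL-3. pSTAT5 in lysates quantified by MSD immunoassay; normalized percent activity fitted to a 4-parameter logistic curve for IC50.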

[7] = target: JAK1 kinase activity on STAT3 in TF1 cells (Homo sapiens, UniProt P23458); experiment: pSTAT3 cell assay (MSD; TF1 cells, 30 ng/mL IL-6 stimulation); assay type: cell-based; conditions: 30 ng/mL IL-6, 15 minutes
Outline: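 Readout is pSTAT3 in lysates, quantified on an MSD plate assay using anti-STAT3 antibodies. Before lysis, TF1 cells had been serum-starved, exposed to compound for 1 hour across ten four-fold dilutions starting at 10 μM, and given IL-6 for 15 minutes.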

Tyk2 kinase activity on STAT4 in NK92 cells, sequence (P29597 whole entry): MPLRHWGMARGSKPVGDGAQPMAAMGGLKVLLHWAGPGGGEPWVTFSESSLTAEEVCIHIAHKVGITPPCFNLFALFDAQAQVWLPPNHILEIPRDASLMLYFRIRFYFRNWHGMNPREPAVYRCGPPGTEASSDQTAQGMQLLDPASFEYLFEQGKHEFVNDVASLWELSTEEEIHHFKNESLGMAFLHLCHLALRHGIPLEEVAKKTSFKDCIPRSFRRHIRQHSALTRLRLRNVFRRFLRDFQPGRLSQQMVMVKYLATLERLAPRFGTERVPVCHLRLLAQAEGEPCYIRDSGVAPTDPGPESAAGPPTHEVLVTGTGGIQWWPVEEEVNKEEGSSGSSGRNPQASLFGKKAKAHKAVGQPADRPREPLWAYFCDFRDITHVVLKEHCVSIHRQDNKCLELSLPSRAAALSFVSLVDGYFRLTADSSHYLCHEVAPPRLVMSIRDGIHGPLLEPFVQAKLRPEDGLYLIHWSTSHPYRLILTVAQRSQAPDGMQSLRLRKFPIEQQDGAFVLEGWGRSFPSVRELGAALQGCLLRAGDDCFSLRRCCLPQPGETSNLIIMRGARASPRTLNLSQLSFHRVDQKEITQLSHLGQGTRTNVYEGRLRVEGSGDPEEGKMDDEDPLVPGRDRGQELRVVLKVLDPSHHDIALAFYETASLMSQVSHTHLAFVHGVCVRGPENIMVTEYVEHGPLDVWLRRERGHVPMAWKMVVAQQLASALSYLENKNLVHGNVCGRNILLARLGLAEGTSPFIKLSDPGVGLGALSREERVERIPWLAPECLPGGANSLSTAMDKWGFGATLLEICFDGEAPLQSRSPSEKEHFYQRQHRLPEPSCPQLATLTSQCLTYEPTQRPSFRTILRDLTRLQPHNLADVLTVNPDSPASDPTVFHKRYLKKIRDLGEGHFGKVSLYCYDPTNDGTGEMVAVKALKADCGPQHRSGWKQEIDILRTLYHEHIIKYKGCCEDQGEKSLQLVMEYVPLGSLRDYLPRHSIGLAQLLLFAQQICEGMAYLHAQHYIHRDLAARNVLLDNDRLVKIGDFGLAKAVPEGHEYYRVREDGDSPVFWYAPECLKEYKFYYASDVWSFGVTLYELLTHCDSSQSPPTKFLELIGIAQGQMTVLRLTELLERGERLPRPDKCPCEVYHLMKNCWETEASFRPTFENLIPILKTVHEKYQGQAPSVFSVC
JAK2 kinase activity on STAT5 in TF1 cells, sequence (O60674 whole entry): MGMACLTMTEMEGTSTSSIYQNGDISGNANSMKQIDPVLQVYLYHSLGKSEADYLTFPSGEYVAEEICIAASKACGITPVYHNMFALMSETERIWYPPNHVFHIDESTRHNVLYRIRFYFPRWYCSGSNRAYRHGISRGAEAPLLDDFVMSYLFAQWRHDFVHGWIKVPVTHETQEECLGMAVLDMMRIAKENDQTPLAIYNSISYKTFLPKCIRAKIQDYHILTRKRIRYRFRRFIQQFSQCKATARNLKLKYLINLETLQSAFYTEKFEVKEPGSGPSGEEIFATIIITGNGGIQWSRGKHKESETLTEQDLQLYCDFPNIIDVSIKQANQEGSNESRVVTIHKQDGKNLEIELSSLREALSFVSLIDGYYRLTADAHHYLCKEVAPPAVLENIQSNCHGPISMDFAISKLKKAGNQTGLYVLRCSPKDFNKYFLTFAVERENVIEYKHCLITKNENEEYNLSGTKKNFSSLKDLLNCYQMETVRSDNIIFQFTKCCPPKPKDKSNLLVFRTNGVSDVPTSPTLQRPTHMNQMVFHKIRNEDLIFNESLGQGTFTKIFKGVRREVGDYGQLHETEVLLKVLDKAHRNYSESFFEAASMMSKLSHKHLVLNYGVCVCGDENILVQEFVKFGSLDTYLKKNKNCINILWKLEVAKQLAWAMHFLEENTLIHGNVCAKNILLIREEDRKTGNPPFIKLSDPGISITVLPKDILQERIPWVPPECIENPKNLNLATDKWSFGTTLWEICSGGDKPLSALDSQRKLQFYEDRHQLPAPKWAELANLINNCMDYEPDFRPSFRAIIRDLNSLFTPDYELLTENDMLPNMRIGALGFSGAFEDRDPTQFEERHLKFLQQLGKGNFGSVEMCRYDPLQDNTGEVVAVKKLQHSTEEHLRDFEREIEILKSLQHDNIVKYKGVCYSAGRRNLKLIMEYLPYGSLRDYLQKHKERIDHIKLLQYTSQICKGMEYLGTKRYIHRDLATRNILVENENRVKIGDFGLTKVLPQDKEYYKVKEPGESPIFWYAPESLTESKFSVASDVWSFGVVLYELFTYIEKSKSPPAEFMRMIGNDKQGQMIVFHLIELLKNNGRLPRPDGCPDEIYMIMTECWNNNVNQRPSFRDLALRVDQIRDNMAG
JAK1 kinase activity on STAT3 in TF1 cells, sequence (P23458 whole entry): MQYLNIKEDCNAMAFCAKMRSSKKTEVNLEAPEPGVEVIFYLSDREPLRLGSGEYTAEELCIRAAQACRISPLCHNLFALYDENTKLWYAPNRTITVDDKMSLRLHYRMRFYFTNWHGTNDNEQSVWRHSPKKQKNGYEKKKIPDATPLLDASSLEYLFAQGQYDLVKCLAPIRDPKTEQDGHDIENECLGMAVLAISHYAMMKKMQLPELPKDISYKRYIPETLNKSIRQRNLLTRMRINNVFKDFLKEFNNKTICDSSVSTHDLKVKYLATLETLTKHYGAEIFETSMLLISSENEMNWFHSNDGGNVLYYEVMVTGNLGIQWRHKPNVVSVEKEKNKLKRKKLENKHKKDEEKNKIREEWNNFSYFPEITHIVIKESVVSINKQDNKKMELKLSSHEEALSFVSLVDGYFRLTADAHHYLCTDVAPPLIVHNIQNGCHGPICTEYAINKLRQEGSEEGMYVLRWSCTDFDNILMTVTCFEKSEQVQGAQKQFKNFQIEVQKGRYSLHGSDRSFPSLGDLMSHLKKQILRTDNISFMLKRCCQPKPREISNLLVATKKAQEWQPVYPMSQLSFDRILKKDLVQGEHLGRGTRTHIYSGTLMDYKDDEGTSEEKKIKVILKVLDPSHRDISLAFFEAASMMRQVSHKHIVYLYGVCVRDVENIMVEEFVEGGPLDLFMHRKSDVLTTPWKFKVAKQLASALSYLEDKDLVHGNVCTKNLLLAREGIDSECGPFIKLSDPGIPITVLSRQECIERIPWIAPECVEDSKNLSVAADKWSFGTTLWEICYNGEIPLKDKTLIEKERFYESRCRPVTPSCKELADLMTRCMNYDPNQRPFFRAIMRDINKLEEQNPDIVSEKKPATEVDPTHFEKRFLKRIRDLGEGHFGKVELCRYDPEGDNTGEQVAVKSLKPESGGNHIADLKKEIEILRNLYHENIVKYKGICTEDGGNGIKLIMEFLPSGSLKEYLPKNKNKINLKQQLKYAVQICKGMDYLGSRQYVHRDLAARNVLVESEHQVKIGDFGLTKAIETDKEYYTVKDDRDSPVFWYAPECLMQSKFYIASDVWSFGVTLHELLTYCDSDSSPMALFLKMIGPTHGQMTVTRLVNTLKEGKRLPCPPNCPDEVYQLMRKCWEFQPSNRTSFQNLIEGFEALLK
T4 sequence (P52333 822-1111 limits assumed): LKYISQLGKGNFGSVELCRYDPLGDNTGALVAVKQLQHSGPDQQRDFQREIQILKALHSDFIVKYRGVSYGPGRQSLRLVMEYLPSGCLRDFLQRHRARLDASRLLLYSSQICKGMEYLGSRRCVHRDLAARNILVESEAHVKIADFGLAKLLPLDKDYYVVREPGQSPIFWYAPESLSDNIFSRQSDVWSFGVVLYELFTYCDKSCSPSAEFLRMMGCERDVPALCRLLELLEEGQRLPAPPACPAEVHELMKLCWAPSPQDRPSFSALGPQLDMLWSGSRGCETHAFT
T2 sequence (P23458 875-1153 limits assumed): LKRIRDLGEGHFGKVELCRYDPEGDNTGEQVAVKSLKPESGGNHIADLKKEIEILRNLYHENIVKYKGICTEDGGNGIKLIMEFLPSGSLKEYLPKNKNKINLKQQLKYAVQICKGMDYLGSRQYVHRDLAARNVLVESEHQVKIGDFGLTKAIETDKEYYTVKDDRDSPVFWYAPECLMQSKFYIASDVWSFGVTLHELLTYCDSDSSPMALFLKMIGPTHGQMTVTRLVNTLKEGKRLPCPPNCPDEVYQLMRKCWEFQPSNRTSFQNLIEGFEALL
T3 sequence (O60674 849-1124 limits assumed): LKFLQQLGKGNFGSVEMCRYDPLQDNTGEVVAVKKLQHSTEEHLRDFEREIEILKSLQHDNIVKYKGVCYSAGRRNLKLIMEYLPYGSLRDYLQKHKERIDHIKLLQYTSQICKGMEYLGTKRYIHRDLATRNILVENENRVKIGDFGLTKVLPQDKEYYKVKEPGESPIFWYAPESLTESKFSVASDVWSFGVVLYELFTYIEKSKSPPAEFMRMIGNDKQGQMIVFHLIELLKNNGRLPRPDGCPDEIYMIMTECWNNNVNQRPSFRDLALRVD

| Compound | IC50 ([1]; JH1 kinase domain, ADP-Glo) [nM] | IC50 ([2]; JH1 kinase domain, ADP-Glo) [nM] | IC50 ([3]; JH1 kinase domain, ADP-Glo) [nM] | IC50 ([4]; JH1 kinase domain, ADP-Glo) [nM] | IC50 [5] [nM] | IC50 [6] [nM] | IC50 [7] [nM] | IC50 ([1]; TYK2 JH1, ADP-Glo) [nM] | IC50 ([2]; JAK1 JH1, ADP-Glo) [nM] | IC50 ([3]; JAK2 JH1, ADP-Glo) [nM] | IC50 ([4]; JAK3 JH1, ADP-Glo) [nM] |
| --- | --- | --- | --- | --- | --- | --- | --- | --- | --- | --- | --- |
| Cc1cnc(-c2cc3c(N4C[C@@H](C)[C@@](C#N)(C5CC5)C4=O)ccnn3c2)s1 [Example 118, (3R,4S)-3-cyclopropyl-4-methyl-1-(6-(5-methylthiazol-2-yl)pyrrolo[1,2-b]pyridazin-4-yl)-2-oxopyrrolidine-3-carbonitrile trifluoroacetate] | 5 to 20 | 100 to 1000 | 100 to 1000 | 100 to 1000 | > 100 | > 10000 | 5000 to 10000 |  |  |  |  |
| Cc1ccc(-c2cc3c(N4C[C@@H](C)[C@@](C#N)(C5CC5)C4=O)ccnn3c2)cn1 [Example 67, (3R,4S)-3-cyclopropyl-4-methyl-1-(6-(6-methylpyridin-3-yl)pyrrolo[1,2-b]pyridazin-4-yl)-2-oxopyrrolidine-3-carbonitrile] | 5 to 20 | 100 to 1000 | 100 to 1000 | 100 to 1000 | > 100 | 5000 to 10000 | 1000 to 5000 |  |  |  |  |
| C[C@@H]1CN(c2ccnn3cc(-c4ccnc(C#N)c4)cc23)C(=O)[C@]1(C#N)C1CC1 [Example 93, 4-(4-((3R,4S)-3-cyano-3-cyclopropyl-4-methyl-2-oxopyrrolidin-1-yl)pyrrolo[1,2-b]pyridazin-6-yl)picolinonitrile] | 5 to 20 | 100 to 1000 | 100 to 1000 | 100 to 1000 | > 100 | > 10000 | 5000 to 10000 |  |  |  |  |
| Cc1c(-c2cn3ncc(F)c3c(N3C[C@@H](C)[C@@](C#N)(C4CC4)C3=O)n2)cnn1C [Example 221, (3R,4S)-3-cyclopropyl-1-(6-(1,5-dimethyl-1H-pyrazol-4-yl)-3-fluoropyrazolo[1,5-a]pyrazin-4-yl)-4-methyl-2-oxopyrrolidine-3-carbonitrile] |  |  |  |  | > 100 | > 10000 | 1000 to 5000 | 5 to 20 | 100 to 1000 | 1000 to 5000 | 100 to 1000 |
| COc1cncc(-c2cn3nccc3c(N3C[C@@H](C)[C@@](C#N)(C4CC4)C3=O)n2)c1 [Example 244, (3R,4S)-3-cyclopropyl-1-(6-(5-methoxypyridin-3-yl)pyrazolo[1,5-a]pyrazin-4-yl)-4-methyl-2-oxopyrrolidine-3-carbonitrile trifluoroacetate] |  |  |  |  | > 100 | > 10000 | 5000 to 10000 | 5 to 20 | 100 to 1000 | 100 to 1000 | 100 to 1000 |
| C[C@@H]1CN(c2nc(-c3cnn(C4CCCC4)c3)cn3ncc(F)c23)C(=O)[C@]1(C#N)C1CC1 [Example 217, (3R,4S)-1-(6-(1-cyclopentyl-1H-pyrazol-4-yl)-3-fluoropyrazolo[1,5-a]pyrazin-4-yl)-3-cyclopropyl-4-methyl-2-oxopyrrolidine-3-carbonitrile] | < 5 | < 100 | < 100 | < 100 | > 100 | 1000 to 5000 | 100 to 1000 |  |  |  |  |
| CNC(=O)c1ccc(-c2cc3c(N4C[C@@H](C)[C@@](C#N)(C5CC5)C4=O)ccnn3c2)cn1 [Example 58, 5-(4-((3R,4S)-3-cyano-3-cyclopropyl-4-methyl-2-oxopyrrolidin-1-yl)pyrrolo[1,2-b]pyridazin-6-yl)-N-methylpicolinamide] | 5 to 20 | 100 to 1000 | 100 to 1000 | 100 to 1000 | 50 to 100 | > 10000 | 1000 to 5000 |  |  |  |  |
| C[C@@H]1CN(c2nc(-c3cnn4c3COCC4)cn3ncc(F)c23)C(=O)[C@]1(C#N)C1CC1 [Example 192, (3R,4S)-3-cyclopropyl-1-(6-(6,7-dihydro-4H-pyrazolo[5,1-c][1,4]oxazin-3-yl)-3-fluoropyrazolo[1,5-a]pyrazin-4-yl)-4-methyl-2-oxopyrrolidine-3-carbonitrile] | 5 to 20 | < 100 | 100 to 1000 | < 100 | > 100 | > 10000 | 1000 to 5000 |  |  |  |  |
| C[C@@H]1CN(c2ccnn3cc(-c4ccc(S(C)(=O)=O)nc4)cc23)C(=O)[C@]1(C#N)C1CC1 [Example 52, (3R,4S)-3-cyclopropyl-4-methyl-1-(6-(6-(methylsulfonyl)pyridin-3-yl)pyrrolo[1,2-b]pyridazin-4-yl)-2-oxopyrrolidine-3-carbonitrile] | 5 to 20 | 100 to 1000 | 100 to 1000 | 100 to 1000 | > 100 | > 10000 | 5000 to 10000 |  |  |  |  |
| C[C@@H]1CN(c2ccnn3cc(-c4cncc(O)c4)cc23)C(=O)[C@]1(C#N)C1CC1 [Example 53, (3R,4S)-3-cyclopropyl-1-(6-(5-hydroxypyridin-3-yl)pyrrolo[1,2-b]pyridazin-4-yl)-4-methyl-2-oxopyrrolidine-3-carbonitrile] | 5 to 20 | 100 to 1000 | 100 to 1000 | 100 to 1000 | > 100 | > 10000 | 5000 to 10000 |  |  |  |  |

The next lines start with the values.

| IC50 ([1]; JH1 kinase domain, ADP-Glo) [nM] | IC50 ([2]; JH1 kinase domain, ADP-Glo) [nM] | IC50 ([3]; JH1 kinase domain, ADP-Glo) [nM] | IC50 ([4]; JH1 kinase domain, ADP-Glo) [nM] | IC50 [5] [nM] | IC50 [6] [nM] | IC50 [7] [nM] | IC50 ([1]; TYK2 JH1, ADP-Glo) [nM] | IC50 ([2]; JAK1 JH1, ADP-Glo) [nM] | IC50 ([3]; JAK2 JH1, ADP-Glo) [nM] | IC50 ([4]; JAK3 JH1, ADP-Glo) [nM] | Compound |
| --- | --- | --- | --- | --- | --- | --- | --- | --- | --- | --- | --- |
|  |  |  |  | 50 to 100 | 100 to 1000 | 100 to 1000 | < 5 | < 100 | 100 to 1000 | < 100 | C[C@@H]1CN(c2nc(-c3ccc(O)nc3)cn3nccc23)C(=O)[C@]1(C#N)C1CC1 [Example 267, (3R,4S)-3-cyclopropyl-1-(6-(6-hydroxypyridin-3-yl)pyrazolo[1,5-a]pyrazin-4-yl)-4-methyl-2-oxopyrrolidine-3-carbonitrile trifluoroacetate] |
|  |  |  |  | 50 to 100 | 1000 to 5000 | 100 to 1000 | < 5 | < 100 | < 100 | < 100 | C[C@@H]1CN(c2nc(-c3cnn(CC4COC4)c3)cn3ncc(F)c23)C(=O)[C@]1(C#N)C1CC1 [Example 304, (3R,4S)-3-cyclopropyl-1-(3-fluoro-6-(1-(oxetan-3-ylmethyl)-1H-pyrazol-4-yl)pyrazolo[1,5-a]pyrazin-4-yl)-4-methyl-2-oxopyrrolidine-3-carbonitrile] |
|  |  |  |  | 50 to 100 | 100 to 1000 | 1000 to 5000 | < 5 | < 100 | < 100 | < 100 | C[C@@H]1CN(c2ccnn3cc(-c4cnn([C@H]5COCC(F)(F)C5)c4)cc23)C(=O)[C@]1(C#N)C1CC1 (single isomer, unassigned) [Example 327] |
|  |  |  |  | 20 to 50 | 100 to 1000 | 100 to 1000 | < 5 | < 100 | < 100 | < 100 | C[C@@H]1CN(c2nc(-c3cnn(C4CC(F)(F)C4)c3)cn3nccc23)C(=O)[C@]1(C#N)C1CC1 [Example 290, (3R,4S)-3-cyclopropyl-1-(6-(1-(3,3-difluorocyclobutyl)-1H-pyrazol-4-yl)pyrazolo[1,5-a]pyrazin-4-yl)-4-methyl-2-oxopyrrolidine-3-carbonitrile] |
|  |  |  |  | 20 to 50 | 100 to 1000 | < 100 | < 5 | < 100 | < 100 | < 100 | C[C@@H]1CN(c2nc(-c3ccc4nccn4c3)cn3nccc23)C(=O)[C@]1(C#N)C1CC1 [Example 263, (3R,4S)-3-cyclopropyl-1-(6-(imidazo[1,2-a]pyridin-6-yl)pyrazolo[1,5-a]pyrazin-4-yl)-4-methyl-2-oxopyrrolidine-3-carbonitrile trifluoroacetate] |
